Data as given in the NIST ThermoML archive (doi:10.1016/j.jct.2014.07.019).

Experiment: xn = mol fraction of the nth substance listed
Settings: 100 kPa, Liquid; for speed of sound: Frequency=3 MHz, Sing-around technique in a fixed-path interferometer; for mass density: Vibrating tube method

CCCCOCC(C)O (stereo not given) [1-butoxy-2-propanol] + CC(C)O
Settings | mass density, 293.15 K [kg/m3] | mass density, 298.15 K [kg/m3] | mass density, 303.15 K [kg/m3] | mass density, 308.15 K [kg/m3] | mass density, 313.15 K [kg/m3] | speed of sound, 293.15 K [m/s] | speed of sound, 298.15 K [m/s] | speed of sound, 303.15 K [m/s] | speed of sound, 308.15 K [m/s] | speed of sound, 313.15 K [m/s]
x1 = 0.0518 | 795.249 | 791.104 | 787.006 | 782.711 | 778.081 | 1178.7 | 1159 | 1141.8 | 1124.3 | 1103.5
x1 = 0.1029 | 803.695 | 799.527 | 795.386 | 791.07 | 786.435 | 1188.9 | 1168.9 | 1150.7 | 1133.2 | 1111.5
x1 = 0.1532 | 811.327 | 807.143 | 802.969 | 798.631 | 793.996 | 1197.5 | 1178.3 | 1159.2 | 1141.6 | 1121.5
x1 = 0.2019 | 818.045 | 813.834 | 809.64 | 805.279 | 800.656 | 1205.8 | 1186.1 | 1166.8 | 1149.2 | 1129.9
x1 = 0.2529 | 824.525 | 820.286 | 816.061 | 811.703 | 807.104 | 1213.9 | 1194.4 | 1174.2 | 1156.5 | 1138.4
x1 = 0.3032 | 830.352 | 826.103 | 821.857 | 817.482 | 812.872 | 1221.8 | 1201.3 | 1181 | 1163.2 | 1146.6
x1 = 0.4059 | 840.824 | 836.541 | 832.254 | 827.85 | 823.26 | 1234.6 | 1214 | 1193.5 | 1175.7 | 1159.4
x1 = 0.5048 | 849.502 | 845.196 | 840.881 | 836.456 | 831.887 | 1244.9 | 1225.3 | 1204.4 | 1186.7 | 1170.3
x1 = 0.604 | 857.039 | 852.718 | 848.373 | 843.934 | 839.389 | 1253.3 | 1234.6 | 1214.4 | 1196.6 | 1179.7
x1 = 0.7012 | 863.524 | 859.19 | 854.833 | 850.391 | 845.859 | 1261.2 | 1243 | 1222.6 | 1204.8 | 1187.9
x1 = 0.8028 | 869.466 | 865.108 | 860.733 | 856.287 | 851.775 | 1267.7 | 1250.2 | 1230.5 | 1212.8 | 1195.7
x1 = 0.8545 | 872.203 | 867.842 | 863.464 | 859.022 | 854.514 | 1270.6 | 1254.6 | 1234 | 1216.2 | 1199.3
x1 = 0.9056 | 874.745 | 870.379 | 865.982 | 861.537 | 857.049 | 1273.4 | 1257.5 | 1237.5 | 1219.7 | 1202.1
x1 = 0.954 | 876.996 | 872.629 | 868.284 | 863.829 | 859.355 | 1275.9 | 1259.8 | 1240.6 | 1222.9 | 1204.7
x1 = 1 | 879.031 | 874.632 | 870.204 | 865.737 | 861.241 | 1279 | 1260.9 | 1242.9 | 1224.9 | 1207

CCCCOCC(C)O (stereo not given) [1-butoxy-2-propanol] + CCC(C)O
Settings | mass density, 293.15 K [kg/m3] | mass density, 298.15 K [kg/m3] | mass density, 303.15 K [kg/m3] | mass density, 308.15 K [kg/m3] | mass density, 313.15 K [kg/m3] | speed of sound, 293.15 K [m/s] | speed of sound, 298.15 K [m/s] | speed of sound, 303.15 K [m/s] | speed of sound, 308.15 K [m/s] | speed of sound, 313.15 K [m/s]
x1 = 0.0517 | 812.712 | 808.614 | 804.434 | 800.162 | 795.809 | 1234.4 | 1217.3 | 1201.4 | 1181.6 | 1163.6
x1 = 0.1014 | 818.284 | 814.152 | 809.949 | 805.653 | 801.286 | 1238.8 | 1221.5 | 1205.7 | 1186 | 1168
x1 = 0.1527 | 823.685 | 819.533 | 815.316 | 811.017 | 806.644 | 1243 | 1225.9 | 1209.6 | 1190 | 1172
x1 = 0.2041 | 828.704 | 824.532 | 820.316 | 816 | 811.61 | 1246.9 | 1229.4 | 1213.3 | 1194 | 1176
x1 = 0.2815 | 835.699 | 831.499 | 827.23 | 822.897 | 818.493 | 1252.2 | 1234 | 1218.3 | 1199.1 | 1181.2
x1 = 0.3581 | 841.995 | 837.767 | 833.49 | 829.144 | 824.735 | 1256.8 | 1238.2 | 1222.6 | 1203.6 | 1185.7
x1 = 0.4421 | 848.377 | 844.12 | 839.804 | 835.438 | 831.018 | 1261.1 | 1242.5 | 1226.7 | 1207.9 | 1190
x1 = 0.5348 | 854.7 | 850.417 | 846.095 | 841.719 | 837.299 | 1265.3 | 1246.8 | 1230.6 | 1212 | 1194.1
x1 = 0.627 | 860.446 | 856.141 | 851.795 | 847.417 | 842.98 | 1268.8 | 1250.7 | 1233.8 | 1215.3 | 1197.5
x1 = 0.7213 | 865.799 | 861.469 | 857.116 | 852.712 | 848.267 | 1271.6 | 1254 | 1236.5 | 1218.2 | 1200.3
x1 = 0.8116 | 870.476 | 866.131 | 861.747 | 857.328 | 852.892 | 1274 | 1256.4 | 1238.8 | 1220.6 | 1202.8
x1 = 0.8581 | 872.724 | 868.372 | 863.985 | 859.577 | 855.127 | 1275.3 | 1257.5 | 1239.8 | 1221.9 | 1204.1
x1 = 0.9062 | 874.964 | 870.61 | 866.21 | 861.774 | 857.32 | 1276.4 | 1258.6 | 1240.8 | 1222.8 | 1205
x1 = 0.9536 | 877.051 | 872.689 | 868.316 | 863.853 | 859.383 | 1277.7 | 1259.7 | 1242 | 1223.9 | 1206.1
x1 = 1 | 879.031 | 874.632 | 870.204 | 865.737 | 861.241 | 1279 | 1260.9 | 1242.9 | 1224.9 | 1207
